Measurements reported in patent publication US20180125993A1 (BEIJING COTIMES BIOTECH COMPANY LIMITED, priority 2014, published 2018).

How the values were obtained:
lung cancer, CS225, 1# = test: Patients primary tumor tissue subcutaneous model (Day 37 after treatment); type: in vivo, nude mice; details: HuCTB006 10 mg/kg i.v. QW × 5w
Text: (§1) Fresh primary tumor tissues from patients were implanted in NOD/SCID mice's flank, which developed into a primary tumor, which was then transferred to the nude mice's flank to allow the tumor reaching an exponential growth phase, and the tumor was named 1# tumor, and so on. When the tumor volume and number reached passage requirements, they were implanted into the right flank of nude mice. When the tumors' average volumes reached 100-200 mm^3, the mice were grouped.
(§2) The bodyweight and major/minor axis of mice were measured twice a week, and Tumor Growth Inhibition (TGI) and tumor volume were calculated same as in 5.1.5. In addition, to evaluate the synergetic effect of drug combination in tumor growth, Jin Zhengjun Q value judgment method was used with the follow formula: Q=Ea+b/(Ea+Eb−Ea×Eb). Ea+b is the inhibition ratio of drug combination, Ea and Eb are the inhibition ratio of each of drug treatment when it is administered alone. […] The animals were monitored, and when the experiments were concluded, mice were sacrificed and tumors were extracted and weighted. All the animal experiments confer to the regulations of animal's welfare and the management of experimental animal usage.
(§3) Tumor volumes were represented with average±standard error. Data analysis was done using Spss16.0, One-Way ANOVA, LSD (homogeneity of variance) or Dunnett T3 (non-homogeneity of variance). […] P<0.05 represents significant difference.

MDA-MB-361 = test: In vitro cytotoxic sensitivity of CTB006; type: cell-based, human; details: MDA-MB-361, Breast cancer
PANC-1 = test: In vitro cytotoxic sensitivity of CTB006; type: cell-based, human; details: PANC-1, Pancreatic cancer
MIA-PaCa-2 = test: Human pancreatic cancer MIA-PaCa-2 subcutaneous model (34 days of treatment); details: for Tumor regression: treatment groups
Protocol: The bodyweight and major/minor axis of the mice were measured twice a week, and the tumor volumes were calculated using the formula: Tumor volume=1/2×major axis×minor axis. […] “T” represents average tumor volume of the experimental group (cm^3), and “C” represents average tumor volume of the control group (cm^3). The animals were monitored at all times. The bodyweight and major/minor axis or mice were measured twice a week. When the experiments were concluded, mice were sacrificed and tumors were extracted and weighted.

OVCA3 = test: In vitro cytotoxic sensitivity of CTB006; type: cell-based, human; details: OVCA3, Ovarian cancer
colon cancer, CS182, 5# = test: Patients primary tumor tissue subcutaneous model (Day 27 after treatment); type: in vivo, nude mice; details: HuCTB006 10 mg/kg i.v. QW × 3w
Text: as §1, §2, §3

colon cancer, CS146, 2# = test: Patients primary tumor tissue subcutaneous model (Day 30 after treatment); type: in vivo, nude mice; details: HuCTB006 10 mg/kg i.v. QW × 6w alone
Text: as §1, §2
Tumor volumes were represented with average±standard error. Data analysis was done using Spss16.0, One-Way ANOVA, LSD (homogeneity of variance) or Dunnett T3 (non-homogeneity of variance). […]

BGC823 = test: In vitro cytotoxic sensitivity of CTB006; type: cell-based, human; details: BGC823, Stomach cancer
7402 = test: In vitro cytotoxic sensitivity of CTB006; type: cell-based, human; details: 7402, Liver cancer
Daudi = test: In vitro cytotoxic sensitivity of CTB006; type: cell-based, human; details: B cell lymphoma
N87 = test: In vitro cytotoxic sensitivity of CTB006; type: cell-based, human; details: N87, Stomach cancer
MKN28 = test: In vitro cytotoxic sensitivity of CTB006; type: cell-based, human; details: MKN28, Stomach cancer
Huh-7 = test: In vitro cytotoxic sensitivity of CTB006; type: cell-based, human; details: Huh-7, Liver cancer
Colo205 = test: Human colon cancer Colo205 subcutaneous model (Day 28 after treatment); type: in vivo, nude mice; details: for TGI calculated using the tumor volume / TGI calculated using the tumor weights: repeated experiment
Protocol: Tumor cells (i.e., MIA-PaCa-2, WiDr, H2122, colo205) were inoculated in nude mice's flank at 5×10^6 cells per mouse. The mice were grouped when the average volume of tumors reached about 100˜200 mm^3. “QW”=weekly dose. “Q3d”=dosed every third day. “BiW”=biweekly.
The bodyweight and major/minor axis of the mice were measured twice a week, and the tumor volumes were calculated using the formula: Tumor volume=1/2×major axis[…]. […] “T” represents average tumor volume of the experimental group (cm^3), and “C” represents average tumor volume of the control group (cm^3). The animals were monitored at all times. The bodyweight and major/minor axis or mice were measured twice a week.
Tumor volumes were represented with average±standard error. […] P<0.05 represents significant difference.

[1] = HuCTB006 0.2 mg/kg i.v. QW × 6W
[2] = HuCTB006 0.6 mg/kg i.v. QW × 6W
[3] = repeated experiment, HuCTB006 0.2 mg/kg
[4] = repeated experiment, HuCTB006 0.6 mg/kg
[5] = repeated experiment, HuCTB006 1 mg/kg
[6] = repeated experiment, HuCTB006 10 mg/kg
[7] = HuCTB006 0.2 mg/kg i.v. QW × 4W
[8] = HuCTB006 0.2 mg/kg i.v. QW × 4W, 0.2 mg/kg
[9] = HuCTB006 0.6 mg/kg i.v. QW × 4W
[10] = HuCTB006 1.8 mg/kg i.v. QW × 4W
[11] = HuCTB006 5.4 mg/kg i.v. QW × 4W

HuCTB006: Monospecific humanized chimeric monoclonal antibody directed to TRAIL-R2 receptor; heavy chain SEQ ID NO: 14, light chain SEQ ID NO: 12
T/C % (Calculated using tumor volumes) (lung cancer, CS225, 1#): 79.86%
Time of tumor volume changed significantly (lung cancer, CS225, 1#): 16
Tumor Volume Mean ± SEM (lung cancer, CS225, 1#): 0.86 ± 0.19 cm^3
Tumor weight Mean ± SEM (lung cancer, CS225, 1#): 0.89 ± 0.23 g
TGI (Calculated using tumor volumes) (lung cancer, CS225, 1#; 10 mg/kg): 19.65%
TGI (Calculated using tumor weight) (lung cancer, CS225, 1#; 10 mg/kg): −25.23%
In vitro cytotoxic sensitivity of CTB006 (MDA-MB-361): Non-responder
In vitro cytotoxic sensitivity of CTB006 (PANC-1): Non-responder
T/C % (Calculated using tumor volumes) (MIA-PaCa-2; [1]): 52.01%
Time of tumor volume changed significantly (MIA-PaCa-2; [1]): 13 days after first treatment
Tumor Volume Mean ± SEM (MIA-PaCa-2; [1]): 1.76 ± 0.15 cm^3
Tumor weight Mean ± SEM (MIA-PaCa-2; [1]): 0.79 ± 0.07 g
T/C % (Calculated using tumor volumes) (MIA-PaCa-2; [2]): 38.43%
Tumor Volume Mean ± SEM (MIA-PaCa-2; [2]): 1.27 ± 0.43 cm^3
Tumor weight Mean ± SEM (MIA-PaCa-2; [2]): 0.54 ± 0.21 g
T/C % (Calculated using tumor volumes) (MIA-PaCa-2; HuCTB006 1 mg/kg i.v. QW × 6W): 24.02%
Tumor Volume Mean ± SEM (MIA-PaCa-2; HuCTB006 1 mg/kg i.v. QW × 6W): 0.88 ± 0.35 cm^3
Tumor weight Mean ± SEM (MIA-PaCa-2; HuCTB006 1 mg/kg i.v. QW × 6W): 0.37 ± 0.19 g
T/C % (Calculated using tumor volumes) (MIA-PaCa-2; HuCTB006 10 mg/kg i.v. QW × 6W): 23.01%
Time of tumor volume changed significantly (MIA-PaCa-2; HuCTB006 10 mg/kg i.v. QW × 6W): 7^2 days after first treatment
Tumor Volume Mean ± SEM (MIA-PaCa-2; HuCTB006 10 mg/kg i.v. QW × 6W): 0.76 ± 0.22 cm^3
Tumor weight Mean ± SEM (MIA-PaCa-2; HuCTB006 10 mg/kg i.v. QW × 6W): 0.19 ± 0.08 g
Tumor regression (MIA-PaCa-2; first experiment): some animals of HuCTB006 groups showed tumor regression
Tumor regression (MIA-PaCa-2; repeated experiment): some animals of HuCTB006 groups also showed tumor regression
TGI calculated based on the tumor volume (MIA-PaCa-2; [3]): 59.52%
TGI calculated based on the tumor weight (MIA-PaCa-2; [3]): 72.38%
TGI calculated based on the tumor volume (MIA-PaCa-2; [4]): 85.35%
TGI calculated based on the tumor weight (MIA-PaCa-2; [4]): 91.39%
TGI calculated based on the tumor volume (MIA-PaCa-2; [5]): 87.52%
TGI calculated based on the tumor weight (MIA-PaCa-2; [5]): 92.02%
TGI calculated based on the tumor volume (MIA-PaCa-2; [6]): 58.99%
TGI calculated based on the tumor weight (MIA-PaCa-2; [6]): 71.93%
Bodyweights of mice (MIA-PaCa-2; treatment groups over the time): slow increase over the time
In vitro cytotoxic sensitivity of CTB006 (OVCA3): Non-responder
T/C % (Calculated using tumor volumes) (colon cancer, CS182, 5#): 102.39%
Time of tumor volume changed significantly (colon cancer, CS182, 5#): 3
Tumor Volume Mean ± SEM (colon cancer, CS182, 5#): 0.95 ± 0.06 cm^3
Tumor weight Mean ± SEM (colon cancer, CS182, 5#): 0.64 ± 0.06 g
TGI (Calculated using tumor volumes) (colon cancer, CS182, 5#; 10 mg/kg): −21.15%
TGI (Calculated using tumor weight) (colon cancer, CS182, 5#; 10 mg/kg): −9.22%
TGI (Calculated using tumor volumes) (colon cancer, CS182, 5#; listed as HUCTB006, 10 mg/kg): −21.15%
TGI (Calculated using tumor weight) (colon cancer, CS182, 5#; listed as HUCTB006, 10 mg/kg): −9.22%
inhibitory effect on the growth of CS146 (colon cancer, CS146, 2#): did not
In vitro cytotoxic sensitivity of CTB006 (BGC823): Partial-responder
In vitro cytotoxic sensitivity of CTB006 7402: Non-responder
In vitro cytotoxic sensitivity of CTB006 (Daudi): Non-responder
In vitro cytotoxic sensitivity of CTB006 (N87): Non-responder
In vitro cytotoxic sensitivity of CTB006 (MKN28): Non-responder
In vitro cytotoxic sensitivity of CTB006 (Huh-7): Non-responder
T/C % (Calculated using tumor volume) (Colo205; [7]): 66.90%
Time of tumor volume changed significantly (Colo205; [7]): 10 Days after first treatment
Tumor Volume Mean ± SEM (Colo205; [7]): 1.24 ± 0.20 cm^3
Tumor weight Mean ± SEM (Colo205; [7]): 0.84 ± 0.14 g
TGI (Calculated using tumor volume) (Colo205; [8]): 35.62%
TGI (Calculated using tumor weight) (Colo205; [8]): 33.30%
T/C % (Calculated using tumor volume) (Colo205; [9]): 14.41%
Tumor Volume Mean ± SEM (Colo205; [9]): 0.29 ± 0.13 cm^3
Tumor weight Mean ± SEM (Colo205; [9]): 0.20 ± 0.10 g
T/C % (Calculated using tumor volume) (Colo205; [10]): 19.91%
Tumor Volume Mean ± SEM (Colo205; [10]): 0.38 ± 0.16 cm^3
Tumor weight Mean ± SEM (Colo205; [10]): 0.23 ± 0.12 g
T/C % (Calculated using tumor volume) (Colo205; [11]): 14.80%
Time of tumor volume changed significantly (Colo205; [11]): 7~10^2 Days after first treatment
Tumor Volume Mean ± SEM (Colo205; [11]): 0.28 ± 0.10 cm^3
Tumor weight Mean ± SEM (Colo205; [11]): 0.15 ± 0.07 g
Bodyweights (Colo205; all HuCTB006 treatment groups): did not show any notably changes
Tumor regression (Colo205; first experiment, treatment groups): four animals of HuCTB006 treatment groups showed tumor regression
TGI calculated using the tumor volume (Colo205; HuCTB006 0.2 mg/kg): 56.16%
TGI calculated using the tumor weights (Colo205; HuCTB006 0.2 mg/kg): 58.68%
TGI calculated using the tumor volume (Colo205; HuCTB006 0.6 mg/kg): 79.75%
TGI calculated using the tumor weights (Colo205; HuCTB006 0.6 mg/kg): 82.34%
TGI calculated using the tumor volume (Colo205; HuCTB006 1.8 mg/kg): 93.65%
TGI calculated using the tumor weights (Colo205; HuCTB006 1.8 mg/kg): 94.33%
TGI calculated using the tumor volume (Colo205; HuCTB006 5.4 mg/kg): 87.12%
TGI calculated using the tumor weights (Colo205; HuCTB006 5.4 mg/kg): 89.90%
